The experiment deals with rat mammary tumor line (MAT-B-III). Nature of the experiment: Optical (NIR fluorescence) imaging of tumor to background ratio in tumor rat model. Type of experiment: in vivo. The source says: For optical imaging the signal to ratio background ratio is defined as the mean fluorescence intensity (target tissue)/mean fluorescence intensity (background tissue). For optical imaging methods, target to background ratio may be determined using computer-controlled (LabVIEW) camera acquisition via custom LabVIEW software. […] A region of interest (ROI) maybe defined in both the tumor area and the background tissue area. Fluorescence emission from the ROI may be received at a near-infrared sensitive 12-bit CCD camera, in which the intensities range from 0-4095.
Optical Imaging Using Tumor Rat Model. Step 1. Introduction of Tumor Cells into Animal. Intra-mammary gland tumor injection is a survival surgery. All procedures are performed with the animal lying on a circulating water pad. With the anesthetized rat lying on its back, the sterile prepped ventral abdominal skin is picked up, just above the left groin (inguinal) area and a small incision is made with scissors being careful to avoid the underlying peritonium. The fourth mammary gland is easily visible, lying on the dorsal surface of the skin directly on top of a junction point for the mammary artery and vein. Using a 1 cc syringe, 10^6 cells (0.1 ml) were injected directly into the gland. Only one mammary gland per rat was inoculated with tumor cells. The skin wound was closed with surgical staples. Surgical staples were removed 3 days after insertion.
Animals are treated with test agents and imaged 7 days after tumor injections. Test agents are administered via a tail vein injection (100-500 μl). For MR studies, animals received a pre-injection scan, followed by post-injection scans. Images were obtained post injection at approximately 4-minute intervals following injection for up to 30-40 minutes. In some experiments images were again taken at 24 hours after injection. For optical studies, animals were imaged at 0.5, 6, 12, and 24 hours.
Step 2. Agent Administration. After approximately 8 days following tumor cell implantation (the tumor size reached about 5-10 mm diameter) one of several imaging agents listed in Table 2 was administered to the animal at the corresponding dosage indicated in Table 2.
Step 3. Surgical Resection. Surgical tumor resection is a non-survival surgery. Tumors were resecteded when they reached a diameter in the range of 5-10 mm in diameter. With the anesthetized rat lying on its back, the ventral abdominal skin is picked up, just above the left groin (inguinal) area and a small incision is made (at or near the site of tumor inoculation) with scissors being careful to avoid the underlying peritonium. The tumor, growing in the mammary gland, stays contained in this tissue and is easily removed. The tumor was held with a pair of forceps and using a scalpel is removed from the surrounding connective tissue. After the tumor was removed, a midline incision, through the peritoneum was made, other organs were observed and imaged, and sampled for histological and biodistribution studies.
Step 4. Data Capture. Images were captured for later evaluation of the relative intensity of fluorescence in the kidney, liver, bladder, muscle etc. Samples of blood and urine were acquired and stored, the animal was sacrificed, and the clearance organs were removed from animal and frozen in a slurry of dry ice and 2-methylbutane. The tissues were then placed in an embedding medium (OCT, […]) and frozen at −80° C. Blood and urine samples were analyzed for concentration of agent at this time point, and for evidence of metabolism of the administered agent.
Statistical Analysis of Optical Imagine Results. To reduce the large number of variables in this problem and one polymer length (˜400 residues) was chosen at a high percentage conjugation (˜96%) for the MR imaging moiety (Gd-DTPA) with one dye per molecule. In one set of experiments, a tetra-sulfonated dye (Cy5.5-NHS-Ester) was then compared with a bis-sulfonated dye (Cy5-NHS-Ester). […]

Turning to `CC[N+]1=C(C=CC=CC=C2N(CCCCCC(=O)O)c3ccc(S(=O)(=O)[O-])cc3C2(C)C)C(C)(C)c2cc(S(=O)(=O)[O-])ccc21.[Na+]` [Cy5 free dye, 2-[5-[1-(5-carboxypentyl)-1,3-dihydro-3,3-dimethyl-5-sulfo-2H-indol-2-ylidene]-penta-1,3-dienyl]-3,3-dimethyl-5-sulfo-1-ethyl-3H-indolium, inner salt, sodium salt], the “Average of Tumor/Bkgnd” value is 1.17 (dose printed as 'blank', 6 hours post injection); 1.18 (dose printed as 'blank', 12 hours post injection); 1.17 (dose printed as 'blank', 24 hours post injection); 1.17 (dose printed as 'blank', Total over time points); 1.17 (vector subtotal over all doses, 6 hours post injection); 1.18 (vector subtotal over all doses, 12 hours post injection). The “Average of Tumor/Bkgnd” value by setting is: (vector subtotal over all doses, 24 hours post injection) 1.17; (vector subtotal over all doses, Total over time points) 1.17.
